# Test results from patent US7960131B2, “Functional genomic pore assay for mixed cell populations” (Wisconsin Alumni Research Foundation, priority 2003, dated 2011).
# Numbering of substitutions follows the chain as printed. Where “and” joins values, the source holds several entries; their conditions need not be identical. Identical values can stand only once.
# Tests used:
# P2X7 = molecular target: T1, P2X7 (Homo sapiens, UniProt Q99572); experiment: YO-PRO-1 plate assay of P2X7 agonists with astrocytoma cell line 1321N1; assay type: cell-based; settings: for YO-PRO-1 fluorescence (485/20, 528/20), single well: 5 × 10^4 1321N1 cells; for YO-PRO-1 fluorescence, average of duplicate wells: 1321N1 cells, agent + YOPRO;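 on all read-outs here: dye uptake read after 20 min agonist exposure with YO-PRO-1 present, unbound dye removed by washing before reading in a fluorescence plate reader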
# T1 construct: host or cells: astrocytoma cell line (the earlier reading names it 1321N1)
# T1 sequence (Q99572 1-595): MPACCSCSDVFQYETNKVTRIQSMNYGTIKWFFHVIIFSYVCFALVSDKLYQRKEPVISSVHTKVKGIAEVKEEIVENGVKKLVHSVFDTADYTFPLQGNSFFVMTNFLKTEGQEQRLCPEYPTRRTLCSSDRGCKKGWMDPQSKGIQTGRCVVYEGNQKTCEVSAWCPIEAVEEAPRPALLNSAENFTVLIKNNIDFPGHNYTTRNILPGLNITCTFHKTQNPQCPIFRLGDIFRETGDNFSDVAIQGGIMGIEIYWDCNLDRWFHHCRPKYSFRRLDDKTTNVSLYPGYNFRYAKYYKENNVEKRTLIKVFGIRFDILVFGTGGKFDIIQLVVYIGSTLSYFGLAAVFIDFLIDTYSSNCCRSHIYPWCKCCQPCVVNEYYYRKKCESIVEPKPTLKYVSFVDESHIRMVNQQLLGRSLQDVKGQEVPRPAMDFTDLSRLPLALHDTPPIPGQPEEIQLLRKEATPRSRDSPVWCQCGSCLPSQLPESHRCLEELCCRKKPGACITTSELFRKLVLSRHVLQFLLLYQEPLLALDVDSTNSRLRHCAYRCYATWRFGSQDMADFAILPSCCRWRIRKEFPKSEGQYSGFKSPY
# P2X7-G150R = molecular target: T2, P2X7-G150R (Homo sapiens, UniProt Q99572, G150R); experiment: YO-PRO-1 uptake fluorimetric plate assay in transfected HEK 293 cells, P2X7-G150R; assay type: cell-based; settings: G150R (G474A) mutant, also in more permissive buffer lacking NaCl
# T2 construct: expressed in transfected cells
# T2 sequence (Q99572 1-595 G150R): T1 sequence (Q99572 1-595) with G150R
# Excerpt: Recombinant Expression and Functional Characterization of Variant P2RX7 Alleles. A pcDNA3 expression vector containing a cloned human P2RX7 cDNA associated with normal pore activity was subjected to point mutagenesis using the Quick Change Kit (Stratagene Inc., city, state) to create the variants P2X7-G150R, P2X7-Q460R, and P2X7-E496A. HEK 293 cells were transfected by the Superfect liposomal method and stable populations were selected by G418 resistance. Expression of P2X7 mRNA and protein in unstimulated transfected HEK cell cultures was verified by RT-PCR and immunoblotting as previously described.
# YO-PRO-1 fluorescence was measured by a Synergy-HT fluorescent plate reader (Biotek, city, state) using X±Y nm excitation and A±B emission filters.
substance,measurement,setting,value
2′-3′-O-(4-benzoylbenzoyl)-adenosine 5′-triphosphate [Bz-ATP],"YO-PRO-1 fluorescence (485/20, 528/20), single well",P2X7; agent 1 μM + YOPRO,98 and 89
same,"YO-PRO-1 fluorescence (485/20, 528/20), single well",P2X7; agent 3 μM + YOPRO,188
same,"YO-PRO-1 fluorescence (485/20, 528/20), single well",P2X7; agent 10 μM + YOPRO,213
same,"YO-PRO-1 fluorescence (485/20, 528/20), single well",P2X7; agent 30 μM + YOPRO,217
same,"YO-PRO-1 fluorescence (485/20, 528/20), single well",P2X7; agent 100 μM + YOPRO,223 and 214
same,"YO-PRO-1 fluorescence (485/20, 528/20), single well",P2X7; agent 300 μM + YOPRO,220 and 232
same,"YO-PRO-1 fluorescence, average of duplicate wells",P2X7; 1 uM,93.5
same,"YO-PRO-1 fluorescence, average of duplicate wells",P2X7; 3 uM,188
same,agonist stimulated increase in YO-PRO-1 fluorescence,P2X7-G150R,loss of pore function
same,agonist stimulated increase in YO-PRO-1 fluorescence,P2X7-G150R; listed as BzATP,no agonist stimulated increase in fluorescence
